Laboratory results as given in PMC6272295, “In Vitro Neuroprotective Activities of Compounds from Angelica shikokiana Makino” (Molecules, 2015).

Assays:
[1] = target: T1, AChE from Electrophorus electricus (Electrophorus electricus, UniProt O42275); assay: biochemical; settings: for IC50: Ellman's method, read-out: IC50 in the AChEI assay
T1 construct: purchased Sigma (St. Louis, MO, USA)
Method: AChEI activity was measured using Ellman’s method. AChE hydrolyzes the substrate ACTI into acetate and thiocholine. In a neutral and alkaline medium; thiocholine reacts with DTNB to give yellow colored 2-nitro-5-thiobenzoate, which can be detected spectrophotometrically at 405 nm. Briefly, in a 96-well plate, 25 µL of 15 mM ACTI, 125 µL of 3 mM DTNB in buffer B (50 mM Tris HCl, pH = 8, 0.1 M NaCl, 0.02 M MgCl2·6H2O), 50 µL of buffer A (50 mM Tris-HCl, PH 8, 0.1% BSA) and 25 µL of tested sample (dissolved in 25% DMSO) were mixed, and the absorbance was measured using a microplate reader (Biotek, Winooski, VT, USA) at 405 nm every 16 s ten times. Then, 25 µL of AChE (0.25 U/mL in buffer A) was added and the absorbance was measured ten times every 16 s. A solution of 25% DMSO was used as a negative control. Absorbance was plotted against time and enzyme activity was calculated from the slope of the line so obtained and expressed as a percentage compared to an assay using a buffer without any inhibitor. Fractions were tested at 400 µg/mL. To avoid any increase in absorbance due to the color of the compounds or spontaneous hydrolysis of the substrate, the absorbance before addition of the enzyme was subtracted from the absorbance after adding the enzyme.
IC50 values of isolated compounds in AChEI and scavenging of hydroxyl radical assays were calculated using Probit Analysis (SPSS Version 16.0 for Windows, SPSS Inc., Chicago, IL, USA) for five different concentrations in three independent experiments. Cell viability was expressed as a percentage of MTT reduction, assuming that the viability of cells treated with 1% DMSO as a negative control was 100%. Figures were built in Microsoft Excel 2010. All values are the mean ± SD of three independent experiments. Data were analyzed for statistical significance using one-way ANOVA, followed by Dunnet’s test as a post-hoc test with GraphPad Prism 5.0 software for Windows (Inc., San Diego, CA, USA).

[2] = test system: intracellular ROS in Neuro-2A cells; assay: Scavenging of intracellular reactive oxygen species (Bes-H2O2-AC, DFF fluorescence); type: cell-based, Mouse; settings: for decrease of DFF fluorescence intensity (intracellular ROS): only at the higher concentration of 100 µM, H2O2 600 µM 30 min; for Intracellular ROS Scavenging: summary Table 4; for Intracellular ROS Scavenging: key: +: Weak activity; ++: Strong activity
Method: (§1) Neuro-2A cell line was maintained in Eagle’s Minimum Essential medium supplemented with 10% fetal bovine serum, 1% of 100× antibiotic—antimitotic agents (containing penicillin and streptomycin) in a humid atmosphere of 5% (v/v) CO2 and 95% (v/v) air at 37 °C. Neuro-2A cells were plated in 96-well cell culture plates at a density of 3 × 10^4 cells/well for H2O2 and intracellular ROS assays and 2.5 × 10^3 cells/well for the Aβ25-35-assay.
This assay was performed as previously described with some modifications. Briefly, Neuro-2A cells were seeded in 96-well Clear Fluorescence Black Plate (number 655090, Greiner Bio-one, Tokyo, Japan). Cells were treated with three different concentrations (25, 50, 100 µM) of the samples. After 2 h incubation, cells were subjected to oxidative stress using 600 µM of H2O2 for 30 min. The nucleus was stained by Hoechst 33342 (Dojindo, Kumamoto, Japan), and the amount of difluorofluorescein (DFF) released from the reaction of H2O2 and BES-H2O2-Ac was taken as an indication of the amount of intracellular H2O2 and ROS. Images of each well were acquired using an IN Cell Analyzer 1000 (GE Healthcare, Buckinghamshire, UK) using 360-nm (Hoechst 33342) and 480-nm (BES-H2O2-Ac) excitation filters and monitored through 460-nm and 535-nm emission filters, respectively. Developer software was used to analyze the images of Hoechst 33342 and BES-H2O2-Ac staining, and the resulting data were then applied to Spotfire Decision Site Client 8.2 software for visualizing the results.

[3] = test system: neuro-2A cells; assay: Protection against Aβ25-35-induced neurotoxicity (MTT); type: cell-based, Mouse; settings: for Protection against Aβ25-35: summary Table 4; for neuroprotection against Aβ25-35 (in words): at the highest concentration (100 µM); for Protection against Aβ25-35: key: +: Weak activity; ++: Strong activity
Method: as §1
Cell viability was determined by MTT reduction assay. Briefly, after treatment with isolated compounds, the media was replaced by fresh one after washing the cells with 100 µL PBS and 20 µL of MTT (5 mg/mL) was added to each well. After 4 h incubation at 37 °C, the state of cells was checked under microscope to confirm either cytotoxicity in H2O2 and Aβ25-35 wells or protection in positive controls and isolated compounds ones. The supernatants were aspirated carefully, and 150 µL of DMSO was added to each well to dissolve the dark blue formazan crystals. The absorbance was measured using a microplate reader at 570 nm.
Similarly, the concentration of Aβ25-35 that decreased cell viability to about 50% was determined. […] So, the cells were incubated with different concentrations of the isolated compounds (6.25, 12.5, 25, 50 and 100 µM) and EGCG as a positive control for 3 h followed by Aβ25-35 treatment for 72 h.

[4] = target: T2, Aβ25-35 (Homo sapiens, UniProt P05067); assay: Thioflavin T assay of Aβ25-35 aggregation; type: biochemical; settings: for effect on Th-T fluorescence (in words): 25-100 µM; for Decrease of ThT Fluorescence: summary Table 4; for Decrease of ThT Fluorescence: key: +: Weak activity; ++: Strong activity
T2 construct: Aβ25-35 (25 µM) freshly prepared in PBS; purchased Sigma (St. Louis, MO, USA)
Method: Thioflavin T (ThT), abenzothiazole salt, is used to quantify misfolded protein aggregates and amyloid peptides. ThT is a non-fluorescent dye which, when it binds to amyloid rich aggregates, produces a fluorescent signal proportional to the quantity of amyloid aggregation. Aβ25-35 (25 µM) freshly prepared in PBS (50 mM, pH = 7.4) was incubated at 37 °C with or without different concentrations (100, 50, 25 µM) of isolated compounds at 37 °C and shaken at 300 rpm for 3 h. One hundred µL of each incubated sample was transferred to a 96-well plate, and five µM ThT was added. The ThT fluorescence was measured over 180 min at 10-min intervals at emission λ at 485 nm; and excitation λ at 442 nm using FlexStation 3 Microplate Reader (Molecular Devices, LLC, Sunnyvale, CA, USA), and data were managed by SoftMax Pro® 5.4.1 software. The samples were constantly shaken every 60 sec during the incubation. 1% DMSO and different concentrations of ECCG were taken as negative and positive controls, respectively. The area under the curve (AUC) was taken as indicative of fluorescence intensity. Fluorescence of samples and ThT without Aβ25-35 (sample blank) was detected and subtracted from the final AUC to prevent any interference.

T1 sequence (O42275 24-633): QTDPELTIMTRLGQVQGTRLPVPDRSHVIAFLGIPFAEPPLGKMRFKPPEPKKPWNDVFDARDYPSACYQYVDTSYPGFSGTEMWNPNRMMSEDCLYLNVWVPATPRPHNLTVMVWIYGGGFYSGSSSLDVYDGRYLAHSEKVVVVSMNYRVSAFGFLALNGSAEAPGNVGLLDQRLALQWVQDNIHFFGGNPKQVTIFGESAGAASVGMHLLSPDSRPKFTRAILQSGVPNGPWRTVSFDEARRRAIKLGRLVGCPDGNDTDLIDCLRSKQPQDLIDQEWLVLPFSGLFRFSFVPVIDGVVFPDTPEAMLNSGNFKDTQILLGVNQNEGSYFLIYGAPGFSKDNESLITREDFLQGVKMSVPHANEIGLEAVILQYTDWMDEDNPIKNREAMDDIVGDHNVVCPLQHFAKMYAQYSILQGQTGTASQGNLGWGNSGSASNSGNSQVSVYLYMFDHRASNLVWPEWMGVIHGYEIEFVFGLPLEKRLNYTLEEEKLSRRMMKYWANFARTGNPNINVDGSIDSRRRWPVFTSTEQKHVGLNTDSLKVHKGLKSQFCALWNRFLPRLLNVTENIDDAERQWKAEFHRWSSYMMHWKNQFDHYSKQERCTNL

SMILES	IC50 [1] [µM]	decrease of DFF fluorescence intensity (intracellular ROS) [2]	Intracellular ROS Scavenging [2]	Protection against Aβ25-35 [3]	effect on Th-T fluorescence (in words) [4]	Decrease of ThT Fluorescence [4]	inhibition at 250 µM ([1]; at 250 µM) [%]	neuroprotection against Aβ25-35 (in words) [3]
CC(=O)OC1c2c(ccc3ccc(=O)oc23)OC(C)(C)C1OC(=O)C(C)(O)C(C)O (stereo not shown) [Hyuganin E (6), hyuganin E]	286.5 ± 2.1	decrease the fluorescence intensity	+	++	decreased Th-T fluorescence in a dose-dependent manner	++		
O=c1c(O)c(-c2ccc(O)cc2)oc2cc(O)cc(O)c12 [Kaempferol (8), kaempferol]		decrease the fluorescence intensity	+	+	weak activity	+	30	significant neuroprotection (p < 0.05)
O=c1c(OC2OC(CO)C(O)C(O)C2O)c(-c2ccc(O)cc2)oc2cc(O)cc(O)c12 (stereo not shown) [Kaempferol-3-O-glucoside (13), kaempferol-3-O-glucoside]	80.4 ± 5.1		+	+	weak activity	+		significant neuroprotection (p < 0.05)
